The results in this text go back to PubChem BioAssay AID1996.

≈ marks a conversion by molar mass, not a printed value.

For the data set the following is noted: buffer; pH 7.4; 200.0 µM.
For the compound `COc1ccccc1NC(=O)CN1CCCCCC1`, the solubility (kinetic) (in general, solubility judged after dilution from a stock solution rather than from solid) worked out at 24.3 µg/mL (≈ 92.6 µM).

Compound `O=C(CSc1nccc(=O)[nH]1)NCc1ccc(Cl)cc1` came in with a kinetic solubility greater than 46.5 µg/mL.

`Cc1ccc(C(=O)CNc2cc(C)ccc2C)cc1` had a solubility (kinetic) of less than 0.5 µg/mL.

In turn, `O=C(O)C1CCCN1S(=O)(=O)c1ccc(Br)cc1` (stereo not drawn) displayed a kinetic solubility greater than 50.1 µg/mL.

`S=C1NCN(Cc2cccnc2)CN1Cc1ccccc1` showed a kinetic solubility greater than 44.8 µg/mL.

Consider `CC1CCCC(C)N1C(=O)COC(=O)/C=C/c1ccc(Br)o1` (stereo not drawn), for which the solubility (kinetic) was determined as 29.8 µg/mL (≈ 80.5 µM).

For `CCOC(=O)c1c(C)[nH]c(C(=O)N2CCN(CC)CC2)c1C`, the kinetic solubility is greater than 46.1 µg/mL.

`CCOC(=O)C1CCCN(S(=O)(=O)c2c(C)noc2C)C1` (stereo not drawn) gave a solubility (kinetic) greater than 47.5 µg/mL.

For `Oc1ccc(Cl)cc1CNc1nccs1`, the kinetic solubility stood at 13.9 µg/mL (≈ 57.7 µM).

Compound `Cc1cc(NC(=O)c2ccco2)c(=O)n(Cc2cccc(C(F)(F)F)c2)c1` yielded a solubility (kinetic) of less than 0.4 µg/mL.

`Cc1cc2oc(=O)cc(CN3CCOCC3)c2c(C)c1Cl` returned a solubility (kinetic) of 0.9 µg/mL (≈ 2.92 µM).

Regarding `O=C(NC(=S)NCc1ccc(Cl)cc1Cl)c1ccco1`, the kinetic solubility amounted to 1.4 µg/mL (≈ 4.25 µM).

`CN1CCN(Cc2nc3ccccc3n2C)CC1CCO` (stereo not drawn): the solubility (kinetic) is 34.3 µg/mL (≈ 119 µM).

As to `CCCCOc1ccc(C(=O)OCC(=O)N2CCCCCC2)cc1`, the solubility (kinetic) stood at 8.4 µg/mL (≈ 25.2 µM).

Turning to `CC1CCCN(CC(=O)c2ccc(Cl)c(Cl)c2)C1` (stereo not drawn), the solubility (kinetic) was found to be 26 µg/mL (≈ 90.8 µM).

The compound `COc1ccc(-c2cc3nc4n(c(=O)c3s2)CCCCC4)cc1` yielded a solubility (kinetic) of less than 0.3 µg/mL.

In the case of `Cc1onc(-c2ccccc2)c1C(=O)N(Cc1ccccn1)Cc1ccccn1`, the kinetic solubility was greater than 57.7 µg/mL.

On to `COC(=O)c1ccccc1-n1c(C)nc(=O)c(-c2ccccc2)c1C`, for which the kinetic solubility is greater than 50.2 µg/mL.

In the case of `Cc1ccc(CNC(=O)COC(=O)c2cc(C)oc2C)cc1`, the kinetic solubility was found to be 4.4 µg/mL (≈ 14.6 µM).

Turning to `C=C1SC(Nc2c(C)cccc2C)=NC12CCCCC2`, the kinetic solubility is less than 0.3 µg/mL.

As to `Cc1ccc(NC(=O)CCCC(=O)OC(C)C(=O)c2ccccc2)cc1` (stereo not drawn), the kinetic solubility was greater than 53 µg/mL.

In turn, `O=C(CSc1nnc2ccccn12)NCCc1ccc(F)cc1` gave a solubility (kinetic) greater than 49.6 µg/mL.

The compound `COc1ccc(-c2noc(CN(Cc3nccn3C)C(C)C)n2)cc1` yielded a solubility (kinetic) of 45.6 µg/mL (≈ 134 µM).

With `O=C(c1cc(Cl)ccc1Cl)N1CCN(Cc2ccccc2)CC1`, the solubility (kinetic) was greater than 52.4 µg/mL.

In turn, `COc1cc(OC)c2c(c1)S(=O)(=O)C(c1ccccc1)=C2N` had a kinetic solubility of 5.1 µg/mL (≈ 16.1 µM).

Consider `CN(CC(=O)NC(=O)NC1CCCCC1)c1ccccc1`, for which the kinetic solubility was found to be 6.7 µg/mL (≈ 23.2 µM).

For `COc1ccc(CCNC(=O)c2cc(C)oc2C)cc1`, the kinetic solubility is greater than 41 µg/mL.

Turning to `O=C(CCn1c(=S)[nH]c2ccccc2c1=O)N1CCCCC1`, the solubility (kinetic) is 9.1 µg/mL (≈ 28.7 µM).

`CSc1nc2c(cc1C#N)CCC2` came in with a kinetic solubility of 5.1 µg/mL (≈ 26.8 µM).

Consider `CCc1nonc1NC(=O)c1oc2cc(C)c(C)cc2c1C`, for which the kinetic solubility worked out at 0.3 µg/mL (≈ 1 µM).

For `Cc1cc2nc(Cl)c(Cl)nc2cc1C`, the kinetic solubility was 0.6 µg/mL (≈ 2.64 µM).

With `CC(=O)N1c2ccccc2CCc2ccc([N+](=O)[O-])cc21`, the solubility (kinetic) is greater than 42.3 µg/mL.

`COc1cccc(CNC(=O)COC(=O)C23CC4CC(CC(Cl)(C4)C2)C3)c1`: the solubility (kinetic) is 21.1 µg/mL (≈ 53.8 µM).

`CN1CCC(N(C)C(=O)COc2ccccc2Cl)CC1` came in with a kinetic solubility greater than 44.5 µg/mL.

As to `CCS(=O)(=O)N1CCC(C(=O)Oc2ccccc2OC)CC1`, the kinetic solubility is greater than 49.1 µg/mL.

`CN1CCN(NC(=O)c2ccc(Cl)s2)CC1` yielded a solubility (kinetic) greater than 39 µg/mL.

In turn, `O=C(CCNC(=O)c1ccc([N+](=O)[O-])cc1)Nc1ccc(F)cc1` registered a solubility (kinetic) of 21.8 µg/mL (≈ 65.8 µM).

As for `CC1CCCC(C)N1C(=O)COC(=O)CN1C(=O)c2ccccc2C1=O` (stereo not drawn), the solubility (kinetic) was greater than 53.8 µg/mL.

`Cl.Clc1ccc(CNCC2CCCO2)c(Cl)c1` (stereo not drawn): the kinetic solubility came out at 37 µg/mL.

`C=CCOn1c(=O)c(-c2ccc(OCC)cc2)[n+]([O-])c2ccccc21`: the kinetic solubility is 6.3 µg/mL (≈ 18.6 µM).

As to `N#Cc1ccc(OCC(=O)NC2=NCCS2)cc1`, the solubility (kinetic) was greater than 39.2 µg/mL.

`COc1ccc2nc(SC)c(C#N)cc2c1` registered a solubility (kinetic) of less than 0.2 µg/mL.

In the case of `N#Cc1c(N)nc2c(c1-c1ccc(F)cc1)CCC2`, the solubility (kinetic) worked out at 3.7 µg/mL (≈ 14.6 µM).

With `Cc1ccccc1C(=O)Nc1cccc(NC(=O)c2cccnc2)c1`, the kinetic solubility was 45.8 µg/mL (≈ 138 µM).

`O=C(OCC(=O)N1CCOCC1)c1ccccc1O` gave a solubility (kinetic) of 29.8 µg/mL (≈ 112 µM).

As to `COC(=O)c1c(C)oc(C)c1S(=O)(=O)NC(C)(C)C`, the solubility (kinetic) is greater than 43.4 µg/mL.

As for `CN(C)c1ccc(C2N(C)C(=O)c3ccccc3N2C)cc1` (stereo not drawn), the kinetic solubility was 40.9 µg/mL (≈ 138 µM).

Consider `O=C(NCc1cnn(-c2ccccc2)c1)C1CCC(=O)N(C2CC2)C1` (stereo not drawn), for which the solubility (kinetic) is greater than 50.8 µg/mL.

For the compound `Cc1cccc(C(=O)NCC(C)NC(=O)c2cccc(C)c2)c1` (stereo not drawn), the solubility (kinetic) worked out at 23.7 µg/mL (≈ 76.4 µM).

Regarding `O=C(CN1C(=O)NC2(CCc3ccccc32)C1=O)Nc1c(Cl)cccc1Cl` (stereo not drawn), the solubility (kinetic) is greater than 60.6 µg/mL.

The compound `CCOc1ccc(Cl)cc1S(=O)(=O)NC1CCCC1` registered a solubility (kinetic) of 38.8 µg/mL (≈ 128 µM).

`CC(C)[C@H](NC(=O)c1cccc(CN(Cc2ccccc2)C(=O)/C=C/c2ccccc2)c1)C(=O)O` displayed a kinetic solubility of 69 µg/mL (≈ 147 µM).

As for `Cc1nc(N2CCCCC2)c(C#N)c(C)c1[N+](=O)[O-]`, the solubility (kinetic) was found to be 3.8 µg/mL (≈ 14.6 µM).
